How the values were obtained:
[1] = test system: C57BL/6 mice with pulmonary arterial hypertension caused by hypoxia; test: Pathological changes of pulmonary arterioles (HE and elastic fiber staining, vascular remodeling rate) in hypoxia PAH mice; type: in vivo, mouse
Procedure: (§1) Healthy and lively C57BL/6 mice at the age of 4-6 weeks, with glossy hair colors, and body weights of (25.15±2.15) g (Laboratory Animal Center of Academy of Military Medical Sciences, SPF grade). The mice were divided into four groups: • Group 1 (wild-type normoxia, used as a control group): 10 female mice and 10 male mice under normoxia conditions; • Group 2 (wild-type hypoxia, used as a control group): 10 female mice and 10 male mice under hypoxia conditions; • Group 3 (10 mg/kg, used as an experimental group): 10 female mice and 10 male mice were treated with 10 mg/kg by gavage under hypoxia conditions; • Group 4 (50 mg/kg, used as an experimental group): 10 female mice and 10 male mice were treated with 50 mg/kg by gavage under hypoxia conditions.
The mice of groups 2-4 were placed in an animal feeding chamber under normal pressure and hypoxia, the oxygen concentration in the chamber was maintained at 9%-11%, and the temperature in the chamber was maintained at 22-26° C. The mice of group 1 inhaled normal atmosphere air, and the other conditions were the same as those for mice of groups 2-4.
In order to explore whether CBD has a therapeutic effect on pulmonary arterial hypertension or not, the inventor first treated mice for 14 days in a continuous hypoxia environment to establish a model of pulmonary arterial hypertension (the groups 2-4), and then administration was started from day 15 to day 21 through gavage once a day, the mice were treated every day for 7 days (the group 3-4), and detection was performed on day 21.
Sample: paraffin sections of mouse lung tissue.
Objective: observing the pathology of lung tissues to detect whether there is a vascular wall thickening phenomenon or not.

[2] = test system: C57BL/6 mice with pulmonary arterial hypertension caused by hypoxia; test: Right ventricular hypertrophy (RVH) index RV/(LV+S) in hypoxia PAH mice; type: in vivo, mouse; settings: 7 days, model group 32.62±1.41, normoxia 25.99±1.17, mean±standard error
Procedure: as §1
The mice of groups 2-4 were placed in an animal feeding chamber under normal pressure and hypoxia, the oxygen concentration in the chamber was maintained at 9%-11%, and the temperature in the chamber was maintained at 22-26° C. The mice of group 1 inhaled normal atmosphere air, and the other conditions were the same as those for mice of groups 2-4. […]

[3] = test system: TNF-α; test: LPS-induced primary alveolar macrophages, TNF-α expression by fluorescence quantitative PCR; type: cell-based, mouse; settings: 0.5, 1, 5 μM CBD pre-treatment 0.5 h, then 100 ng/mL LPS, 5 h; dose-dependent
Source text: (§2) Primary alveolar macrophages were isolated according to the method by Yang et al. (Yang, H. M., Ma, J. Y., Castranova, V., and Ma, J. K. (1997). Effects of diesel exhaust particles on the release of interleukin-1 and tumor necrosis factor-alpha from rat alveolar macrophages. Experimental lung research 23, 269-284): two-month-old mice were taken and injected intraperitoneally with pentobarbital to be anesthetized. The mice were fixed at a supine position, and disinfected at the neck, and the neck skin was cut open to strip gland muscles and expose the trachea. A small opening was cut in an upper part of the trachea without cutting off. A small white pipette tip was inserted onto a 1 ml pipette to pipette 1 ml PBS at 4° C. (free of Ca^2+, free of Mg^2+, […]) [50 ml PBS+0.00876 g EDTA] into the lung from the opening, and then pipetted out from the opening after blowing in. Then fresh PBS was taken and pipetted into and out from the opening repeatedly for 3-4 times. The collected alveolar irrigation solution was centrifuged at 200×g for 5 minutes, and the supernatant was discarded. The cells were washed once with a serum-free RPMI-1640 culture medium and centrifuged at 200×g for 5 minutes. The cells were resuspended by adding a serum-containing RPMI-1640 and then inoculated. The cells were subjected to adherence for 2 h, and then washed for three times with PBS. […]

[4] = test system: C57BL/6 mice with pulmonary arterial hypertension caused by hypoxia; test: Right ventricular systolic pressure (RVSP) in mice with pulmonary arterial hypertension caused by hypoxia; type: in vivo, mouse; settings: day 15 to 21 of continuous hypoxia, detection on day 21, hypoxia model control 25.55±2.29, normoxia 17.54±1.48, mean±standard error
Procedure: as §1, with “conditions. […]” for “conditions.”
On day 21, the mice were anesthetized by intraperitoneal injection of sodium pentobarbital (35 mg/kg), and the right ventricular systolic pressure was measured by using a catheter matched with a physiological instrument with reference to the right-heart catheterization reported by Song et al. (Song, Y., Jones, J. E., Beppu, H., Keaney, J. F., Jr., Loscalzo, J., and Zhang, Y. Y. (2005). Increased susceptibility to pulmonary hypertension in heterozygous BMPR2-mutant mice. Circulation 112, 553-562). […] After the catheter entered the right ventricle, RVSP was determined and recorded.

[5] = test system: IL-6; test: LPS-induced primary alveolar macrophages, IL-6 expression by fluorescence quantitative PCR; type: cell-based, mouse; settings: 0.5, 1, 5 μM CBD pre-treatment 0.5 h, then 100 ng/mL LPS, 5 h; dose-dependent
Source text: as §2

[6] = test system: MgI2; test: LPS-induced primary alveolar macrophages, MgI2 expression by fluorescence quantitative PCR; type: cell-based, mouse; settings: 0.5, 1, 5 μM CBD pre-treatment 0.5 h, then 100 ng/mL LPS, 5 h
Source text: as §2

[7] = after CBD treatment (10 and 50 mg/kg by gavage) versus hypoxia model group
[8] = both dose groups (10 and 50 mg/kg)

In the case of `C=C(C)[C@@H]1CCC(C)=C[C@H]1c1c(O)cc(CCCCC)cc1O` [CBD, Cannabidiol], the pulmonary arteriole remodeling [1, 7] is reported as “significantly reduced”, the vascular remodeling rate [1, 7] is reported as “significantly reduced” and the “arterial medial wall thickness ratio” value [1, 8] is reported as “reduction”. The “vascular wall medial cross-sectional area ratio” value [1, 8] was “reduction”, the “right ventricular hypertrophy index (right heart index)” value ([2]; 10 mg/kg by gavage) was 30.18±1.01% and the “right ventricular hypertrophy index (right heart index)” value ([2]; 50 mg/kg by gavage) was 29.90±1.19%. For the same compound, the “expression of LPS-induced TNF-α” value [3] was “significantly inhibit”, the “mean right ventricular systolic pressure” value ([4]; 10 mg/kg by gavage once a day) was 16.90±2.31 mmHg and the “mean right ventricular systolic pressure” value ([4]; 50 mg/kg by gavage once a day) was 17.92±2.37 mmHg. The “expression of LPS-induced IL-6” value [5] was “significantly inhibit” and the “expression of MgI2, a gene that inhibited inflammation” value [6] was “promote”.
